# Measurements reported in publication PMC3380012, “Wild-Type Phosphoribosylpyrophosphate Synthase (PRS) from Mycobacterium tuberculosis: A Bacterial Class II PRS?” (PLoS ONE, 2012).
# “And” between values parts separate entries of the source, which are not always exact repeats. Equal values may be shown once. “Also recorded” adds a separate entry of the source. Read-outs that look alike come from different tables or passages of the source.
# B1: Mycobacterium tuberculosis phosphoribosylpyrophosphate synthase (MtPRS) (enzyme)
# chain: MSHDWTDNRKNLMLFAGRAHPELAEQVAKELDVHVTSQDAREFANGEIFVRFHESVRGCDAFVLQSCPAPVNRWLMEQLIMIDALKRGSAKRITAVMPFYPYARQDKKHRGREPISARLIADLLKTAGADRIVTVDLHTDQIQGFFDGPVDHMRGQNLLTGYIRDNYPDGNMVVVSPDSGRVRIAEKWADALGGVPLAFIHKTRDPRVPNQVVSNRVVGDVAGRTCVLIDDMIDTGGTIAGAVALLHNDGAGDVIIAATHGVLSDPAAQRLASCGAREVIVTNTLPIGEDKRFPQLTVLSIAPLLASTIRAVFENGSVTGLFDGDA
# notes: also called prsA gene product; Rv1017c
# Experiments:
# MtPRS [1] = target: T1, MtPRS (Mycobacterium tuberculosis, UniProt P9WKE3); assay: MtPRS inhibition assays (coupled assay, fixed R5P and ATP); assay type: biochemical
# Description: (§1) All chemicals were purchased from Sigma Aldrich. All enzyme activity assays were performed in triplicate. MtPRS activity was measured by a coupled continuous spectrophotometric assay in quartz cuvettes using a UV-visible Shimadzu spectrophotometer UV2550 equipped with a temperature-controlled cuvette holder. […] Homogeneous recombinant MtOPRT was obtained as described elsewhere. […] The reaction mixture (500 µL) contained 1.8 U MtOPRT, 300 µM OA, 20 mM MgCl2, in Tris HCl 50 mM pH 8.0. Reaction was started by addition of MtPRS (0.24–1.2 µM). One unit of MtPRS is defined as the amount of enzyme necessary to convert 1 µmol of R5P to PRPP per min. Effect of Pi over MtPRS activity was assessed by varying Pi concentration (10–50 mM) in the reaction conditions described above.
# All measurements were performed in triplicate. The concentration of inhibitor required to reduce the fractional enzyme activity to half of its initial value in the absence of inhibitor (IC50) was obtained from fitting the data to Eq. (4) for partial inhibition, in which y is the fractional activity of the enzyme in the presence of inhibitor at concentration [I]; y (max) is the maximum value of y observed at [I] = 0; and y min is the minimum limiting value of y at high inhibitor concentrations. [drawing 4] (4)
# [2] = target: T2, MtOPRT (M. tuberculosis orotate phosphoribosyltransferase) (Mycobacterium tuberculosis, UniProt P9WHK9); assay: Control measurement of coupled enzyme MtOPRT activity in presence of donors and inhibitors; assay type: biochemical; conditions: compounds present in the assay mixtures of the coupled assays; data not shown
# T2 construct: made in house
# T2 sequence (P9WHK9 whole entry): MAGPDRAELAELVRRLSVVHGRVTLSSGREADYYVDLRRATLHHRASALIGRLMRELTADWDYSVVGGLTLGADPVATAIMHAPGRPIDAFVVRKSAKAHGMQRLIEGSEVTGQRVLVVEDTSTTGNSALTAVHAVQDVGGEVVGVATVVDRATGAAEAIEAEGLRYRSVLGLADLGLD
# Description: as §1
# Accordingly, the effects of the alternative diphosphoryl group donors, or nucleoside 5′-diphosphate or monophosphate inhibitors, were solely due to changes in MtPRS enzyme activity.
# M. tuberculosis PRS [3] = conditions: cited from earlier work; for IC50: read-out: IC50 (inhibition of MtPRS activity)
# MtPRS [4] = target: T1, MtPRS; assay: Intrinsic tryptophan fluorescence (ITF) titration, binary complex formation at equilibrium; assay type: binding; conditions: for Kd: Tris HCl 50 mM pH 7.5, MgCl2 20 mM, read-out: KD (hyperbolic binding to free MtPRS); for change in intrinsic protein fluorescence upon titration of free MtPRS: absence of second substrate
# Description: Intrinsic tryptophan fluorescence titration was carried out to assess binary complex formation at equilibrium between MtPRS and either substrate(s) or product(s) at 25°C [43]. […] Fluorescence titrations were performed by making microliter additions of substrates and products at varying stock concentrations to 1 mL of MtPRS 3 µM, with a maximum dilution of 6%. […] After each ligand titration, the mixture was stirred for 3 minutes to ensure equilibrium binding prior to ITF measurements. […] Control experiments were performed in the same conditions in the absence of MtPRS to verify any inner filter effect, and the values found in the control experiments were subtracted from those obtained in the presence of the enzyme. No corrections for effects of protein dilution on ITF upon addition of buffer A containing MgCl2 20 mM to MtPRS were necessary. Data from equilibrium fluorescence spectroscopy were fitted to Eq. (5) for hyperbolic binding isotherms, in which F is the observed fluorescence signal; F max is the maximal fluorescence intensity; and KD represents the dissociation constant for binding of substrate and/or product to MtPRS. Sigmoidal binding data were fitted Eq. (6), in which F is the observed fluorescence signal, F max is the maximal fluorescence intensity, n is the Hill coefficient, and K’ is a constant comprising interaction factors and the intrinsic dissociation constant. [drawing 5] (5) [drawing 6] (6)
# M. tuberculosis PRS [5] = conditions: ref Alderwick, et al. 2011 [30], cited from earlier work
# [6] = target: T3, MtPRS (Mycobacterium tuberculosis phosphoribosylpyrophosphate synthase) (Mycobacterium tuberculosis, UniProt P9WKE3); conditions: diphosphoryl donor varied, R5P fixed at 60 µM, 25°C
# S. typhimurium PRS = tested on: S. typhimurium PRS; parameters: method as in PMID 211378; conditions: cited from earlier work
# [7] = target: T3, MtPRS (Mycobacterium tuberculosis phosphoribosylpyrophosphate synthase); assay: biochemical
# [8] = tested on: Nc1nc2c(ncn2[C@@H]2O[C@H](COP(=O)(O)OP(=O)(O)OP(=O)(O)O)[C@@H](O)[C@H]2O)c(=O)[nH]1; assay: purified protein, by the assay type; conditions: pH 8.0
# [9] = tested on: O=P(O)(O)OC[C@H]1O[C@H](O)[C@H](O)[C@@H]1O; assay: purified protein, by the assay type; conditions: pH 8.0
# [10] = tested on: O=c1ccn([C@@H]2O[C@H](COP(=O)(O)OP(=O)(O)OP(=O)(O)O)[C@@H](O)[C@H]2O)c(=O)[nH]1; assay: purified protein, by the assay type; conditions: pH 8.0
# [11] = target: the molecule itself; assay: cross-linking; glutaraldehyde vapour cross-linking, 0.3 mg/mL MtPRS in Tris HCl 50 mM pH 7.5 with ADP 5 mM, with or without Pi 50 mM, 30°C, 12% SDS-PAGE
# [12] = target: the molecule itself; assay: cross-linking; glutaraldehyde vapour cross-linking, 0.3 mg/mL MtPRS in Tris HCl 50 mM pH 7.5 with ATP 5 mM, with or without Pi 50 mM, 30°C, 12% SDS-PAGE
# [13] = target: the molecule itself; assay: cross-linking; glutaraldehyde vapour cross-linking, 0.3 mg/mL MtPRS in Tris HCl 50 mM pH 7.5 with R5P 5 mM, with or without Pi 50 mM, 30°C, 12% SDS-PAGE
# [14] = target: the molecule itself; assay: cross-linking; glutaraldehyde vapour cross-linking, 0.3 mg/mL apo MtPRS in Tris HCl 50 mM pH 7.5, with or without Pi 50 mM, 30°C, different incubation times, 12% SDS-PAGE
# [15] = target: the molecule itself; assay: as above; remark: listed apart in the source
# [16] = read-out: IC50 (partial inhibition of MtPRS activity)
# [17] = 37°C, KH2PO4 50 mM pH 8.0, ref Lucarelli, et al. 2010 [31]
# [18] = ref Lucarelli, et al. 2010 [31]
molecule,measurement,setting,value
"Nc1ncnc2c1ncn2[C@@H]1O[C@H](COP(=O)(O)OP(=O)(O)O)[C@@H](O)[C@H]1O [ADP, adenosine 5′-diphosphate]",IC50,MtPRS [1]; [16],70 µM
same,effect on MtOPRT enzyme activity,[2],did not have any effect
same,IC50,M. tuberculosis PRS [3]; saturating ATP and non-saturating Pi concentrations,260 µM
same,IC50,M. tuberculosis PRS [3]; saturating ATP and saturating Pi concentrations,400 µM
Nc1ncnc2c1ncn2[C@@H]1O[C@H](COP(=O)(O)O)[C@@H](O)[C@H]1O [AMP],"K' (sigmoidal binding, Hill equation)","MtPRS [4]; 25°C, MtPRS 3 µM, MgCl2 20 mM",109 (±3) µM and 109 µM
same,Hill coefficient,MtPRS [4]; sigmoidal binding to free MtPRS,3.2
"Nc1ncnc2c1ncn2[C@@H]1O[C@H](COP(=O)(O)OP(=O)(O)OP(=O)(O)O)[C@@H](O)[C@H]1O [ATP, adenosine 5′-triphosphate]",Kd,"MtPRS [4]; 25°C, MtPRS 3 µM",18 µM
same,effect on MtOPRT enzyme activity,[2],did not have any effect
same,Vmax,"M. tuberculosis PRS [5]; 37°C, KH2PO4 50 mM pH 8.0",601 µmol⁻¹ min⁻¹ mg⁻¹
same,S0.5,M. tuberculosis PRS [5],62.65 µM
same,n (Hill coefficient),M. tuberculosis PRS [5],1.68
same,kcat,M. tuberculosis PRS [3]; [17],34.6 (±3) s^−1
same,S0.5,M. tuberculosis PRS [3]; [18],260 (±50) µM
same,n (Hill coefficient),M. tuberculosis PRS [3]; [18],1
"Nc1ccn([C@@H]2O[C@H](COP(=O)(O)OP(=O)(O)OP(=O)(O)O)[C@@H](O)[C@H]2O)c(=O)n1 [CTP, cytosine 5′-triphosphate]",change in intrinsic protein fluorescence upon titration of free MtPRS,"MtPRS [4]; 25°C, MtPRS 3 µM",No change in protein fluorescence; also recorded: no change in IFT could be detected
same,effect on MtOPRT enzyme activity,[2],did not have any effect
same,Vmax (apparent),"[6]; pH 8.0, no Pi",0.111 (±0.003) µmol^−1 min^−1 mg^−1
same,kcat,"[6]; pH 8.0, no Pi",0.065 (±0.001) s^−1
same,Km,"[6]; read-out: KM (apparent), Tris HCl 50 mM pH 8.0, MgCl2 20 mM, no Pi",26 µM
same,"activity as alternative substrate, of maximum reported activity using ATP as substrate",S. typhimurium PRS,3%
"Nc1nc2c(ncn2[C@@H]2O[C@H](COP(=O)(O)OP(=O)(O)O)[C@@H](O)[C@H]2O)c(=O)[nH]1 [GDP, guanosine 5′-diphosphate]",IC50,MtPRS [1]; [16],900 µM
same,effect on MtOPRT enzyme activity,[2],did not have any effect
same,IC50,M. tuberculosis PRS [3]; in the presence of Pi,> 5000 µM
"Nc1nc2c(ncn2[C@@H]2O[C@H](COP(=O)(O)OP(=O)(O)OP(=O)(O)O)[C@@H](O)[C@H]2O)c(=O)[nH]1 [GTP, guanosine 5′-triphosphate]",Kd,"MtPRS [4]; 25°C, MtPRS 3 µM",21 µM
same,effect on MtOPRT enzyme activity,[2],did not have any effect
same,"activity as alternative substrate, of maximum reported activity using ATP as substrate",S. typhimurium PRS,3%
O=c1[nH]cnc2c1ncn2[C@@H]1O[C@H](COP(=O)(O)OP(=O)(O)OP(=O)(O)O)[C@@H](O)[C@H]1O [ITP],"activity as alternative substrate, of maximum reported activity using ATP as substrate",S. typhimurium PRS,3%
"O=P(O)(O)OC[C@H]1O[C@H](OP(=O)(O)OP(=O)(O)O)[C@H](O)[C@@H]1O [PRPP, 5-phospho-α-D-ribose 1-diphosphate]",change in intrinsic protein fluorescence upon titration of free MtPRS,"MtPRS [4]; 25°C, MtPRS 3 µM",no intrinsic protein fluorescence change; also recorded: No change in ITF could be detected
"O=P(O)(O)OC[C@H]1O[C@H](O)[C@H](O)[C@@H]1O [R5P, α-D-ribose 5-phosphate]",Kd,"MtPRS [4]; 25°C, MtPRS 3 µM",61 µM
same,Km,"M. tuberculosis PRS [5]; 37°C, KH2PO4 50 mM pH 8.0",8.2 µM
same,Vmax,"M. tuberculosis PRS [5]; 37°C, KH2PO4 50 mM pH 8.0",530 µmol⁻¹ min⁻¹ mg⁻¹
same,kcat,"M. tuberculosis PRS [5]; 37°C, KH2PO4 50 mM pH 8.0",60.68 s⁻¹
same,Km,M. tuberculosis PRS [3]; [17],71 µM
same,kcat,M. tuberculosis PRS [3]; [17],37.1 s⁻¹
same,Ki,[7],211 µM
O=c1ccn([C@@H]2O[C@H](COP(=O)(O)O)[C@@H](O)[C@H]2O)c(=O)[nH]1 [UMP],IC50,"MtPRS [1]; R5P 60 µM, ATP 300 µM fixed, 0.24 µM MtPRS, no Pi, fit to partial inhibition equation",3000 µM
same,effect on MtOPRT enzyme activity,[2],did not have any effect
"O=c1ccn([C@@H]2O[C@H](COP(=O)(O)OP(=O)(O)OP(=O)(O)O)[C@@H](O)[C@H]2O)c(=O)[nH]1 [UTP, uridine 5′-triphosphate]",change in intrinsic protein fluorescence upon titration of free MtPRS,"MtPRS [4]; 25°C, MtPRS 3 µM",No change in protein fluorescence; also recorded: no change in IFT could be detected
same,effect on MtOPRT enzyme activity,[2],did not have any effect
same,"activity as alternative substrate, of maximum reported activity using ATP as substrate",S. typhimurium PRS,3%
MtPRS (Mycobacterium tuberculosis phosphoribosylpyrophosphate synthase) (Mycobacterium tuberculosis H37Rv),Km,[8],37 (±9) µM
same,Vmax,[8],0.237 µmol/min/mg
same,kcat,[8],0.14 ± 0.002 s⁻¹
same,kcat/Km,[8],3800 ± 900 M⁻¹ s⁻¹
same,Km,[9],14 (±2) µM
same,Vmax,[9],1.41 µmol/min/mg
same,kcat,[9],0.83 ± 0.04 s⁻¹
same,kcat/Km,[9],59000 ± 8000 M⁻¹ s⁻¹
same,Km,[10],52 (±7) µM
same,Vmax,[10],0.264 µmol/min/mg
same,kcat,[10],0.155 s⁻¹
same,kcat/Km,[10],3000 M⁻¹ s⁻¹
B1,stoichiometry N,[11],4
same,stoichiometry N,[12],2
same,stoichiometry N,[13],6
same,stoichiometry N,[14],3
same,stoichiometry N,[15],6
